US20170334899A1, “AMINO-SUBSTITUTED ISOTHIAZOLES” (Bayer Pharma Aktiengesellschaft, priority 2014, published 2017)
Counter-ions that a name gives are not always drawn.

Assays:
Format in all cases: cell-based
HeLa-MaTu-ADR = experiment: Proliferation assay (crystal violet), HeLa-MaTu-ADR; conditions: 96 h; HeLa-MaTu-ADR cells; 4 days incubation; crystal violet staining; read-out: IC50 inhibition of proliferation, HeLa-MaTu-ADR
Procedure: (§1) Cultivated tumor cells (cells were ordered from ATCC, except HeLa-MaTu and HeLa-MaTu-ADR, which were ordered from EPO-GmbH, Berlin) were plated at a density of 1000 to 5000 cells/well, depending on the growth rate of the respective cell line, in a 96-well multititer plate in 200 μL of their respective growth medium supplemented 10% fetal calf serum. After 24 hours, the cells of one plate (zero-point plate) were stained with crystal violet (see below), while the medium of the other plates was replaced by fresh culture medium (200 μl), to which the test substances were added in various concentrations (0 μM, as well as in the range of 0.001-10 μM; the final concentration of the solvent dimethyl sulfoxide was 0.5%). The cells were incubated for 4 days in the presence of test substances. Cell proliferation was determined by staining the cells with crystal violet: the cells were fixed by adding 20 μl/measuring point of an 11% glutaric aldehyde solution for 15 minutes at room temperature. After three washing cycles of the fixed cells with water, the plates were dried at room temperature. The cells were stained by adding 100 μl/measuring point of a 0.1% crystal violet solution (pH 3.0). After three washing cycles of the stained cells with water, the plates were dried at room temperature. The dye was dissolved by adding 100 μl/measuring point of a 10% acetic acid solution. Absorbtion was determined by photometry at a wavelength of 595 nm. The change of cell number, in percent, was calculated by normalization of the measured values to the aborbtion values of the zero-point plate (=0%) and the absorbtion of the untreated (0 μm) cells (=100%). The IC50 values were determined by means of a 4 parameter fit.

Caco-2 = experiment: Proliferation assay (crystal violet), Caco-2; conditions: Homo sapiens, 96 h; Caco-2 cells; 4 days incubation; crystal violet staining; read-out: IC50 inhibition of proliferation, Caco2
Procedure: as §1

NCI-H460 = experiment: Proliferation assay (crystal violet), NCI-H460; conditions: Homo sapiens, 96 h; NCI-H460 cells; 4 days incubation; crystal violet staining; read-out: IC50 inhibition of proliferation, NCI-H460
Procedure: as §1

DU145 = experiment: Proliferation assay (crystal violet), DU145; conditions: Homo sapiens, DU-145, 96 h; DU145 cells; 4 days incubation; crystal violet staining; read-out: IC50 inhibition of proliferation, DU145
Procedure: as §1

B16F10 = experiment: Proliferation assay (crystal violet), B16F10; conditions: Mus musculus, B16-F10, 96 h; B16F10 cells; 4 days incubation; crystal violet staining; read-out: IC50 inhibition of proliferation, B16F10
Procedure: as §1

[1] = tested on: human cervical tumor cell line HeLa (ATCC CCL-2); experiment: SAC-Formation - Nocodazole-Induced Assay; conditions: 24 h, HeLa cells, nocodazole 0.1 μg/ml together with test compound, decrease of mitotic cells (phospho-histone H3 Ser10)
In short: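 Loss of phospho-histone H3 Ser10-positive cells, counted against Hoechst-stained nuclei by high-content imaging, marked mitotic breakthrough. Compounds (0.005–20 μM, 0.5% DMSO) were co-dosed with 0.1 μg/ml nocodazole onto HeLa cells for 24 h at 37 °C. Curves were fitted with a four-parameter Hill equation.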

| IC50 (HeLa-MaTu-ADR) | IC50 (Caco-2) | IC50 (NCI-H460) | IC50 (DU145) | IC50 (B16F10) | IC50 ([1]; Homo sapiens, HeLa) | IC50 [1] | Compound |
| --- | --- | --- | --- | --- | --- | --- | --- |
| 520 nM | 920 nM | 810 nM | 1400 nM | 1500 nM | 600 nM |  | Cc1nsc(Nc2cnc(C(F)(F)F)cn2)c1C(=O)Nc1ccc(OC2CCN(CCF)CC2)nc1 [Example 7, N-(6-{[1-(2-Fluoroethyl)piperidin-4-yl]oxy}pyridin-3-yl)-3-methyl-5-{[5-(trifluoromethyl)pyrazin-2-yl]amino}-1,2-thiazole-4-carboxamide] |
| 110 nM | 150 nM | 100 nM | 250 nM | 210 nM | 1500 nM |  | Cc1nsc(Nc2cnc(C(F)(F)F)cn2)c1C(=O)Nc1ccc(OC2CCN(CC(F)F)CC2)nc1 [Example 8, N-(6-{[1-(2,2-Difluoroethyl)piperidin-4-yl]oxy}pyridin-3-yl)-3-methyl-5-{[5-(trifluoromethyl)pyrazin-2-yl]amino}-1,2-thiazole-4-carboxamide] |
| 130 nM | 160 nM | 98 nM | 300 nM | 190 nM | 220 nM |  | Cc1nsc(Nc2cnc(C(F)(F)F)cn2)c1C(=O)Nc1ccc(OC2CCN(CC(F)(F)F)CC2)nc1 [Example 9, -Methyl-N-(6-{[1-(2,2,2-trifluoroethyl)piperidin-4-yl]oxy}pyridin-3-yl)-5-{[5-(trifluoromethyl)pyrazin-2-yl]amino}-1,2-thiazole-4-carboxamide] |
| 57 nM | 180 nM | 170 nM | 140 nM | 300 nM |  | 260 nM | Cc1nsc(Nc2cnc(C(F)(F)F)cn2)c1C(=O)Nc1ccc(OC2CCN(CCC(F)(F)F)CC2)nc1 [Example 10, 3-Methyl-5-{[5-(trifluoromethyl)pyrazin-2-yl]amino}-N-(6-{[1-(3,3,3-trifluoropropyl)-piperidin-4-yl]oxy}pyridin-3-yl)-1,2-thiazole-4-carboxamide] |
| 170 nM | 280 nM | 230 nM | 660 nM | 350 nM | 7 nM |  | Cc1nsc(Nc2cnc(C(F)(F)F)cn2)c1C(=O)Nc1ccc(OCC2CCN(C(=O)OC(C)(C)C)C2)nc1 (centres unmarked) [Example 109, tert-Butyl 3-{[(5-{[(3-methyl-5-{[5-(trifluoromethyl)pyrazin-2-yl]amino}-1,2-thiazol-4-yl)carbonyl]amino}pyridin-2-yl)oxy]methyl}pyrrolidine-1-carboxylate] |
|  |  |  |  |  |  | 55 nM | Cc1nsc(Nc2cnc(C(F)(F)F)cn2)c1C(=O)Nc1ccc(F)c(OCC2CCCN(CC(F)F)C2)c1 (centres unmarked) [Example 335, N-(3-{[1-(2,2-difluoroethyl)piperidin-3-yl]methoxy}-4-fluorophenyl)-3-methyl-5-{[5-(trifluoromethyl)pyrazin-2-yl]amino}-1,2-thiazole-4-carboxamide] |
|  |  |  |  |  |  | 340 nM | Cc1nsc(Nc2cnc(C(F)(F)F)cn2)c1C(=O)Nc1ccc(O[C@@H]2CCN(CC(F)(F)F)C2)nc1 [Example 421, 3-Methyl-N-(6-{[(3R)-1-(2,2,2-trifluoroethyl)pyrrolidin-3-yl]oxy}pyridin-3-yl)-5-{[5-(trifluoromethyl)pyrazin-2-yl]amino}-1,2-thiazole-4-carboxamide] |
|  |  |  |  |  |  | 40 nM | Cc1nsc(Nc2cnc(C(F)(F)F)cn2)c1C(=O)Nc1ccc(OC[C@@H]2CCCN(CCC(F)(F)F)C2)nc1 [Example 422, 3-Methyl-5-{[5-(trifluoromethyl)pyrazin-2-yl]amino}-N-(6-{[(3R)-1-(3,3,3-trifluoropropyl)piperidin-3-yl]methoxy}pyridin-3-yl)-1,2-thiazole-4-carboxamide] |
|  |  |  |  |  |  | 47 nM | Cc1nsc(Nc2cnc(C(F)(F)F)cn2)c1C(=O)Nc1ccc(O[C@@H]2CCN(CCC(F)(F)F)C2)nc1 [Example 423, 3-Methyl-5-{[5-(trifluoromethyl)pyrazin-2-yl]amino}-N-(6-{[(3R)-1-(3,3,3-trifluoropropyl)pyrrolidin-3-yl]oxy}pyridin-3-yl)-1,2-thiazole-4-carboxamide] |
|  |  |  |  |  |  | 30 nM | Cc1nsc(Nc2cnc(C(F)(F)F)cn2)c1C(=O)Nc1ccc(OC2CCN(CCC(F)(F)F)CC2)nc1 [Example 426, 3-Methyl-5-{[5-(trifluoromethyl)pyrazin-2-yl]amino}-N-(6-{[1-(3,3,3-trifluoro-propyl)piperidin-4-yl]oxy}pyridin-3-yl)-1,2-thiazole-4-carboxamide, Salt with Hydrochloric Acid] |

The next lines start with the compound.

| Compound | IC50 (HeLa-MaTu-ADR) | IC50 (Caco-2) | IC50 (NCI-H460) | IC50 (DU145) | IC50 (B16F10) | IC50 ([1]; Homo sapiens, HeLa) | IC50 [1] |
| --- | --- | --- | --- | --- | --- | --- | --- |
| Cc1nsc(Nc2cncc(C(F)(F)F)n2)c1C(=O)Nc1ccc(OC2CCN(C(=O)OC(C)(C)C)CC2)nc1 [Example 12, tert-Butyl 4-[(5-{[(3-methyl-5-{[6-(trifluoromethyl)pyrazin-2-yl]amino}-1,2-thiazol-4-yl)carbonyl]amino}pyridin-2-yl)oxy]piperidine-1-carboxylate] | 640 nM | 470 nM | 270 nM | 1100 nM | 400 nM | 220 nM |  |
| Cc1nsc(Nc2cnc(C(F)(F)F)cn2)c1C(=O)Nc1ccc(C(=O)OC(C)(C)C)cc1 [Example 96, tert-Butyl 4-{[(3-methyl-5-{[5-(trifluoromethyl)pyrazin-2-yl]amino}-1,2-thiazol-4-yl)carbonyl]amino}benzoate] | 410 nM | 330 nM | 740 nM | 800 nM | 1100 nM | 1.8 nM |  |
| Cc1nsc(Nc2ccc(C#N)cn2)c1C(=O)Nc1ccc(C(=O)OC(C)(C)C)cc1 [Example 98, tert-Butyl 4-[({5-[(5-cyanopyridin-2-yl)amino]-3-methyl-1,2-thiazol-4-yl}carbonyl)-amino]benzoate] | 150 nM | 110 nM | 170 nM | 460 nM | 460 nM | 3.8 nM |  |
| Cc1nsc(Nc2cnc3ccccc3n2)c1C(=O)Nc1cccc(-c2nc(C(C)(C)C)no2)c1 [Example 108, N-[3-(3-tert-Butyl-1,2,4-oxadiazol-5-yl)phenyl]-3-methyl-5-(quinoxalin-2-ylamino)-1,2-thiazole-4-carboxamide] | 330 nM | 300 nM | 290 nM | 570 nM | 700 nM | 19 nM |  |
| Cc1nsc(Nc2cncc(C(F)(F)F)n2)c1C(=O)Nc1ccc(OCC2CCN(C(=O)OC(C)(C)C)C2)nc1 (centres unmarked) [Example 110, tert-Butyl 3-{[(5-{[(3-methyl-5-{[6-(trifluoromethyl)pyrazin-2-yl]amino}-1,2-thiazol-4-yl)carbonyl]amino}pyridin-2-yl)oxy]methyl}pyrrolidine-1-carboxylate] | 950 nM | 1500 nM | 360 nM | 2000 nM | 800 nM | 35 nM |  |
| Cc1nsc(Nc2cnc3ccccc3n2)c1C(=O)Nc1ccc(Oc2cccc(C(F)(F)F)c2)nc1 [Example 117, 3-Methyl-5-(quinoxalin-2-ylamino)-N-{6-[3-(trifluoromethyl)phenoxy]pyridin-3-yl}-1,2-thiazole-4-carboxamide] | 660 nM | 100 nM | 300 nM | 310 nM | 730 nM | 190 nM |  |
| Cc1nsc(Nc2ccc(C#N)cn2)c1C(=O)Nc1ccc(Oc2cccc(C(F)(F)F)c2)nc1 [Example 118, 5-[(5-Cyanopyridin-2-yl)amino]-3-methyl-N-{6-[3-(trifluoromethyl)phenoxy]pyridin-3-yl}-1,2-thiazole-4-carboxamide] | 320 nM | 340 nM | 480 nM | 750 nM | 380 nM | 110 nM |  |
